# Experimental data as given in patent publication US20260250290A1 (BRISTOL-MYERS SQUIBB COMPANY, priority 2023, published 2026).
# Molecular target: T1, full length SGK1 (Homo sapiens, UniProt O00141)
# T1 construct: 125 μM full length SGK1 (Life Technologies Part #PR7358A); purchased Life Technologies PR7358A
# T1 sequence (O00141 1-431): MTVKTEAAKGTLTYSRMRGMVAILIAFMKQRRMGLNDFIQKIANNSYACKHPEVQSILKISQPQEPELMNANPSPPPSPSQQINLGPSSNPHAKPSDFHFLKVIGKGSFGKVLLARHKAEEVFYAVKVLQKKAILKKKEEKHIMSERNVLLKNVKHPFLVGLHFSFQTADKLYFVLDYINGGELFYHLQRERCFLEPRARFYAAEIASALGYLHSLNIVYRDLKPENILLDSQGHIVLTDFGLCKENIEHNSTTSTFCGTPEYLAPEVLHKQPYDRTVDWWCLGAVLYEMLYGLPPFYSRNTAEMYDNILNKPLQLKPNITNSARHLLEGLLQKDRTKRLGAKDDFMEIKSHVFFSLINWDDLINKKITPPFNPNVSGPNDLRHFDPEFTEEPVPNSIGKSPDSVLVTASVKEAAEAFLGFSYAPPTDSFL
# Assay: SGK1 inhibition Assay A (Caliper LabChip electrophoretic separation of fluorescent peptide substrate and phosphorylated product)
# Assay type: biochemical
# Settings: Assay A; 20 μM ATP, 40 min incubation; read-out: SGK1 IC50
row,Structure (SMILES),IC50
1,"COC(=O)N1CC=C(c2cc(N3CCC[C@@H](NC(=O)c4sc(C(F)F)cc4N4CCOCC4)C3)c3c(N)ncnn23)C1 [Example 321, Methyl (R)-3-(4-amino-5-(3-(5-(difluoromethyl)-3-morpholinothiophene-2-carboxamido)piperidin-1-yl)pyrrolo[2,1-f][1,2,4]triazin-7-yl)-2,5-dihydro-1H-pyrrole-1-carboxylate]",13 nM
2,"CC(=O)N1CC=C(c2cc(N3CCC[C@@H](NC(=O)c4sc(C(F)F)cc4C4=CCN(C)CC4)C3)c3c(N)ncnn23)C1 [Example 322, (R)—N-(1-(7-(1-acetyl-2,5-dihydro-1H-pyrrol-3-yl)-4-aminopyrrolo[2,1-f][1,2,4]triazin-5-yl)piperidin-3-yl)-5-(difluoromethyl)-3-(1-methyl-1,2,3,6-tetrahydropyridin-4-yl)thiophene-2-carboxamide]",96 nM
3,"CN1CC=C(c2cc(C(F)F)sc2C(=O)N[C@@H]2CCCN(c3cc(-c4ccc(C(N)=O)c(F)c4)n4ncnc(N)c34)C2)CC1 [Example 323, (R)—N-(1-(4-amino-7-(4-carbamoyl-3-fluorophenyl)pyrrolo[2,1-f][1,2,4]triazin-5-yl)piperidin-3-yl)-5-(difluoromethyl)-3-(1-yl)-5-(difluoromethyl)-3-(1-methyl-1,2,3,6-tetrahydropyridin-4-yl)thiophene-2-carboxamide]",19 nM
4,"COC(=O)N1CC=C(c2cc(N3CCC[C@@H](NC(=O)c4sc(C(F)F)cc4OCCN)C3)c3c(N)ncnn23)C1 [Example 324, methyl (R)-3-(4-amino-5-(3-(3-(2-aminoethoxy)-5-(difluoromethyl)thiophene-2-carboxamido)piperidin-1-yl)pyrrolo[2,1-f][1,2,4]triazin-7-yl)-2,5-dihydro-1H-pyrrole-1-carboxylate]",4 nM
5,"NCCOc1cc(C(F)F)sc1C(=O)N[C@@H]1CCCN(c2cc(-c3cncnc3)n3ncnc(N)c23)C1 [Example 325, (R)-N-(1-(4-amino-7-(pyrimidin-5-yl)pyrrolo[2,1-f][1,2,4]triazin-5-yl)piperidin-3-yl)-3-(2-aminoethoxy)-5-(difluoromethyl)thiophene-2-carboxamide]",15 nM
6,"NCCOc1cc(C(F)F)sc1C(=O)N[C@@H]1CCCN(c2cc(-c3ccnc(C(F)F)c3)n3ncnc(N)c23)C1 [Example 326, (R)-N-(1-(4-amino-7-(2-(difluoromethyl)pyridin-4-yl)pyrrolo[2,1-f][1,2,4]triazin-5-yl)piperidin-3-yl)-3-(2-aminoethoxy)-5-(difluoromethyl)thiophene-2-carboxamide]",4 nM
7,"NCCOc1cc(Cl)sc1C(=O)N[C@@H]1CCCN(c2cc(-c3cncnc3)n3ncnc(N)c23)C1 [Example 327, (R)—N-(1-(4-amino-7-(pyrimidin-5-yl)pyrrolo[2,1-f][1,2,4]triazin-5-yl)piperidin-3-yl)-3-(2-aminoethoxy)-5-chlorothiophene-2-carboxamide]",9 nM
8,"CC(=O)NCCOc1cc(Cl)sc1C(=O)N[C@@H]1CCCN(c2cc(C3=CCN(C(C)=O)C3)n3ncnc(N)c23)C1 [Example 328, (R)-3-(2-acetamidoethoxy)-N-(1-(7-(1-acetyl-2,5-dihydro-1H-pyrrol-3-yl)-4-aminopyrrolo[2,1-f][1,2,4]triazin-5-yl)piperidin-3-yl)-5-chlorothiophene-2-carboxamide]",3 nM
9,"CC(=O)N1CC=C(c2cc(N3CCC[C@@H](NC(=O)c4sc(Cl)cc4OCCNC(=O)C(F)F)C3)c3c(N)ncnn23)C1 [Example 329, (R)—N-(1-(7-(1-acetyl-2,5-dihydro-1H-pyrrol-3-yl)-4-aminopyrrolo[2,1-f][1,2,4]triazin-5-yl)piperidin-3-yl)-5-chloro-3-(2-(2,2-difluoroacetamido)ethoxy)thiophene-2-carboxamide]",3 nM
10,"CC(=O)N1CC=C(c2cc(N3CCC[C@@H](NC(=O)c4sc(Cl)cc4OC[C@H](C)N)C3)c3c(N)ncnn23)C1 [Example 330, N—((R)-1-(7-(1-acetyl-2,5-dihydro-1H-pyrrol-3-yl)-4-aminopyrrolo[2,1-f][1,2,4]triazin-5-yl)piperidin-3-yl)-3-((S)-2-aminopropoxy)-5-chlorothiophene-2-carboxamide]",3 nM
11,"CC(=O)N1CC=C(c2cc(N3CCC[C@@H](NC(=O)c4sc(Cl)cc4OCC4(N)CC4)C3)c3c(N)ncnn23)C1 [Example 331, (R)—N-(1-(7-(1-acetyl-2,5-dihydro-1H-pyrrol-3-yl)-4-aminopyrrolo[2,1-f][1,2,4]triazin-5-yl)piperidin-3-yl)-3-((1-aminocyclopropyl)methoxy)-5-chlorothiophene-2-carboxamide]",21 nM
12,"CC(=O)N(C)CCOc1cc(Cl)sc1C(=O)N[C@@H]1CCCN(c2cc(C3=CCN(C(C)=O)C3)n3ncnc(N)c23)C1 [Example 332, (R)—N-(1-(7-(1-acetyl-2,5-dihydro-1H-pyrrol-3-yl)-4-aminopyrrolo[2,1-f][1,2,4]triazin-5-yl)piperidin-3-yl)-5-chloro-3-(2-(N-methylacetamido)ethoxy)thiophene-2-carboxamide]",18 nM
13,"CNCCOc1cc(Cl)sc1C(=O)N[C@@H]1CCCN(c2cc(C3=CCN(C(C)=O)C3)n3ncnc(N)c23)C1 [Example 332D, (R)—N-(1-(7-(1-acetyl-2,5-dihydro-1H-pyrrol-3-yl)-4-aminopyrrolo[2,1-f][1,2,4]triazin-5-yl)piperidin-3-yl)-5-chloro-3-(2-(methylamino)ethoxy)thiophene-2-carboxamide]",10 nM
14,COC(=O)N(C)CCOc1cc(Cl)sc1C(=O)N[C@@H]1CCCN(c2cc(C3=CCN(C(C)=O)C3)n3ncnc(N)c23)C1 [Example 333],1 nM
15,"COC(=O)N1CC=C(c2cc(N3CCC[C@@H](NC(=O)c4sc(C(F)F)cc4OCCN4CCN(C)CC4)C3)c3c(N)ncnn23)C1 [Example 334, Methyl (R)-3-(4-amino-5-(3-(5-(difluoromethyl)-3-(2-(4-methylpiperazin-1-yl)ethoxy)thiophene-2-carboxamido)piperidin-1-yl)pyrrolo[2,1-f][1,2,4]triazin-7-yl)-2,5-dihydro-1H-pyrrole-1-carboxylate]",9 nM
16,"CN1CCN(CCOc2cc(C(F)F)sc2C(=O)N[C@@H]2CCCN(c3cc(-c4ccnc(C(F)F)c4)n4ncnc(N)c34)C2)CC1 [Example 335, (R)—N-(1-(4-amino-7-(2-(difluoromethyl)pyridin-4-yl)pyrrolo[2,1-f][1,2,4]triazin-5-yl)piperidin-3-yl)-5-(difluoromethyl)-3-(2-(4-methylpiperazin-1-yl)ethoxy)thiophene-2-carboxamide]",4 nM
17,"COC(=O)N1CC=C(c2cc(N3CCC[C@@H](NC(=O)c4sc(C(F)F)cc4OCCN4CCOCC4)C3)c3c(N)ncnn23)C1 [Example 336, methyl (R)-3-(4-amino-5-(3-(5-(difluoromethyl)-3-(2-morpholinoethoxy)thiophene-2-carboxamido)piperidin-1-yl)pyrrolo[2,1-f][1,2,4]triazin-7-yl)-2,5-dihydro-1H-pyrrole-1-carboxylate]",28 nM
18,"Nc1ncnn2c(-c3ccnc(C(F)F)c3)cc(N3CCC[C@@H](NC(=O)c4sc(C(F)F)cc4OCCN4CCOCC4)C3)c12 [Example 337, (R)—N-(1-(4-amino-7-(2-(difluoromethyl)pyridin-4-yl)pyrrolo[2,1-f][1,2,4]triazin-5-yl)piperidin-3-yl)-5-(difluoromethyl)-3-(2-morpholinoethoxy)thiophene-2-carboxamide]",14 nM
19,"CN(C)C(=O)COc1cc(Cl)sc1C(=O)N[C@@H]1CCCN(c2cc(-c3ccnc(C(F)F)c3)n3ncnc(N)c23)C1 [Example 339, (R)—N-(1-(4-amino-7-(2-(difluoromethyl)pyridin-4-yl)pyrrolo[2,1-f][1,2,4]triazin-5-yl)piperidin-3-yl)-5-chloro-3-(2-(dimethylamino)-2-oxoethoxy)thiophene-2-carboxamide]",9 nM
20,"CN(C)CCOc1cc(Cl)sc1C(=O)N[C@@H]1CCCN(c2cc(-c3ccnc(C(F)F)c3)n3ncnc(N)c23)C1 [Example 340, (R)—N-(1-(4-amino-7-(2-(difluoromethyl)pyridin-4-yl)pyrrolo[2,1-f][1,2,4]triazin-5-yl)piperidin-3-yl)-5-chloro-3-(2-(dimethylamino)ethoxy)thiophene-2-carboxamide]",3 nM
21,"Nc1ncnn2c(-c3ccnc(C(F)F)c3)cc(N3CCC[C@@H](NC(=O)c4sc(Cl)cc4OCCN4CCOCC4)C3)c12 [Example 341, (R)—N-(1-(4-amino-7-(2-(difluoromethyl)pyridin-4-yl)pyrrolo[2,1-f][1,2,4]triazin-5-yl)piperidin-3-yl)-5-chloro-3-(2-morpholinoethoxy)thiophene-2-carboxamide]",2 nM
22,"CN1CCN(CCOc2cc(Cl)sc2C(=O)N[C@@H]2CCCN(c3cc(-c4ccnc(C(F)F)c4)n4ncnc(N)c34)C2)CC1 [Example 342, (R)—N-(1-(4-amino-7-(2-(difluoromethyl)pyridin-4-yl)pyrrolo[2,1-f][1,2,4]triazin-5-yl)piperidin-3-yl)-5-chloro-3-(2-(4-methylpiperazin-1-yl)ethoxy)thiophene-2-carboxamide]",4 nM
23,"CN(C)CCOc1cc(C(F)F)sc1C(=O)N[C@@H]1CCCN(c2cc(-c3ccnc(C(F)F)c3)n3ncnc(N)c23)C1 [Example 343, (R)—N-(1-(4-amino-7-(2-(difluoromethyl)pyridin-4-yl)pyrrolo[2,1-f][1,2,4]triazin-5-yl)piperidin-3-yl)-5-(difluoromethyl)-3-(2-(dimethylamino)ethoxy)thiophene-2-carboxamide]",5 nM
